What was measured:
[1] = test system: larvae and adult zebrafish; test: Long-term toxicity testing in zebrafish; assay type: in vivo
Procedure: Optovin is a rhodanine-containing small molecule with no previously annotated biological activity (FIG. 1D). […] Motor behavior in optovin-treated animals is elicited by radiation stimulus intensitites greater than 1.6 μW/mm^2 (FIG. 1G). […] To determine the long-term effects of optovin exposure on development, behavior and survival, the development, behavior and survival of larvae and adult zebrafish exposed to optovin (10 μM) for 96 hours were analyzed. […] Thus, optovin is a novel behavior-modifying compound that causes rapid and reversible motor excitation in response to violet light stimuli.
To determine the long-term effects of optovin exposure on development, behavior and survival, the development, behavior and survival of larvae (n=150) and adult zebrafish (n=2) exposed to 10 μM optovin for 96 hours was analyzed.

human TrpA1 (hTrpA1) = biological target: T1, human TrpA1 (hTrpA1) (Homo sapiens, UniProt O75762); test: Whole-cell patch clamp in transfected HEK293T cells; assay type: cell-based; conditions: 10 μM, following photo-stimulation (405 nm)
T1 construct: expressed in transfected cells; host or cells: HEK293 / HEK293T
Procedure: To determine if TRPA1 is sufficient for optovin activity, current density amplitudes were analyzed via whole-cell patch clamping in HEK293T cells transfected with the human TrpA1 (hTrpA1) gene.
HEK293 cells were plated upon poly-lysine coated cover slips and transiently transfected with human TRPA1. Voltage clamp recordings were made in the whole-cell configuration 48 hours after transfection using glass electrodes with 2-4M ohm resistance when filled with (in mM) 140 CsCl, 2 Mg2ATP3, 2 MgCl, 5 EGTA, and 10 HEPES (pH adjusted to 7.2 with CsOH) and while bathed at room temperature in extracellular solution containing (in mM) 150 NaCl, 5.4 KCl, 1.8 CaCl2, 1 MgCl, and 5 mM HEPES (pH adjusted to 7.4 with NaOH). A voltage ramp protocol from −80 mV to +80 mV over 400 ms was repeated every 5 seconds during the following conditions: while the cell was dialyzed by the pipette, followed by at least 60 seconds of illumination with 405 nm light, after which optovin (10 μM) containing extracellular solution was perfused into the bath, followed by 1 minute of illumination. Current elicited at holding potentials of +/−70 mV were used to characterize TRPA1 activation.

hTRPA1 C621S = biological target: T2, hTRPA1 C621S (Homo sapiens, UniProt O75762, C621S); test: Calcium imaging of transfected HEK cells; assay type: cell-based; conditions: compared with WT channels
T2 construct: expressed in transfected cells; host or cells: HEK293
Procedure: (§1) Reactive electrophilic compounds activate TRPA1 channels through the covalent modification of specific cysteine residues including those at amino acid positions 621, 633, and 856. Point mutations in these cysteines can reduce hTRPA1 activation by specific ligands without disrupting overall channel function^39,40. To determine if these cysteine residues are also important for TRPA1 activation by optovin, intracellular calcium levels were measured in cells transfected with wildtype and mutant hTRPA1 channels. […] Rhodanine and hydantoin are photoelectric moieties used in photovoltaic panels and other photochemical applications^41,42. Nevertheless, photosensitization alone is insufficient to grant optovin its unusual biological activity. For example, optovin is phenotypically unique compared to 171 additional rhodanine-containing compounds contained in the screening library (data not shown).
(§2) HEK293 cells were plated onto poly-lysine-coated glass bottom culture dishes (MatTek Corp), and grown in Dulbecco's Modified Eagle's Medium (DMEM, Sigma) supplemented with 10% fetal bovine serum and 100 U/mL penicillin and 100 μg/ml streptomycin. After 24 hrs, cells were transfected, according to manufacturer's instructions, in Opti-MEM media, using 4 μl lipofectamine 2000 (Invitrogen), 0.5 ug EGFP in pcDNA, and 0.3 μg TrpA1 DNA per dish. Media was replaced after 2 hours, and cells were cultured for an additional 17 hours. As previously described for neurons, HEK cells were washed with assay buffer (HBSS Gibco 14025, supplemented with 9 mM HEPES, 11 mM D-glucose, 0.1% fatty-acid free BSA, pH 7.3) and incubated for 1 h with 2 μM Fura2-AM (Invitrogen) with 0.2% pluronic (Invitrogen) in assay buffer in the dark at room temperature. The cells were then washed with assay buffer and allowed to equilibrate at room temperature for 30 min prior to imaging. At the start of the imaging session for each dish, cells were replaced with DMSO-assay buffer. After 50 seconds of imaging, assay buffer was aspirated by hand, and replaced with 100 μM optovin dissolved in the DMSO-assay buffer solution. […]

hTRPA1 C633S = biological target: T3, hTRPA1 C633S (Homo sapiens, UniProt O75762, C633S); test: Calcium imaging of transfected HEK cells; assay type: cell-based; conditions: compared with WT channels
T3 construct: expressed in transfected cells; host or cells: HEK293
Procedure: as §1, §2

[2] = biological target: T4, hTRPA1 C633S/C856S double mutant (Homo sapiens, UniProt O75762, C633S/C856S); test: Calcium imaging of transfected HEK cells; assay type: cell-based; conditions: compared with WT channels
T4 construct: expressed in transfected cells; host or cells: HEK293
Procedure: as §1, §2

[3] = Reactive oxygen species generation (singlet oxygen sensor green, NBT); assay type: physicochemical
Source text: How might optovin activate TRPA1? When molecules absorb light, photons can excite electrons from their ground state to a […] via intersystem crossing^37. These photoactivated compounds can then undergo reactions by transferring energy or electrons to target molecules, including aqueous molecular oxygen. Optovin is a yellow-colored compound with peak absorbance at 415 nm (FIG. 4A). To determine if optovin is photochemically reactive, it was exposed to increasing intensities of 415 nm light and assayed for reactive oxygen species (ROS) generation.
Assay for singlet oxygen generation using singlet oxygen sensor green (SOSG) UV-vis absorption spectra were recorded at 20 uM in methanol using an Evolution 300 UV-Vis Spectrophotometer (Thermo Fisher Scientific Inc., Waltham, Mass.). 96-well black-sided plates were used for fluorescent probe experiments. SOSG (Molecular Probes Invitrogen, Eugene, Oreg.) as a 1 mM stock solution in DMF was added to give final concentration of 5 μM SOSG, to optovin and analogues dissolved as 5 μM solutions in 200 μL 50% H2O/CH3CN preloaded in 96-well plates. An Omnilux Clear-U LED light source (Photo Therapeutics Inc), Carlsbad, Calif.) that emits blue light 415-nm+15-nm as a homogeneous spot with an irradiance of 50 mW/cm^2 measured with a power meter (model DMM 199 with 201 standard head; Coherent, Santa Clara, Calif.) that covers an area of one half of a 96-well plate.
Fluorescence spectrophotometry was carried out with SpectraMax M5 plate reader (Molecular Devices, Sunnyvale, Calif.) using excitation and emission at 504 and 525-nm Fluorescence was read after each successive increment of blue light was delivered. As a positive control for a known photosensitizer that absorbs 415-nm light with a quantum yield of singlet oxygen of approximately 0.6 we used a conjugate between polyethylenimine and chlorin(e6) (PEI-ce6)^46.

T3 sequence (O75762 whole entry C633S): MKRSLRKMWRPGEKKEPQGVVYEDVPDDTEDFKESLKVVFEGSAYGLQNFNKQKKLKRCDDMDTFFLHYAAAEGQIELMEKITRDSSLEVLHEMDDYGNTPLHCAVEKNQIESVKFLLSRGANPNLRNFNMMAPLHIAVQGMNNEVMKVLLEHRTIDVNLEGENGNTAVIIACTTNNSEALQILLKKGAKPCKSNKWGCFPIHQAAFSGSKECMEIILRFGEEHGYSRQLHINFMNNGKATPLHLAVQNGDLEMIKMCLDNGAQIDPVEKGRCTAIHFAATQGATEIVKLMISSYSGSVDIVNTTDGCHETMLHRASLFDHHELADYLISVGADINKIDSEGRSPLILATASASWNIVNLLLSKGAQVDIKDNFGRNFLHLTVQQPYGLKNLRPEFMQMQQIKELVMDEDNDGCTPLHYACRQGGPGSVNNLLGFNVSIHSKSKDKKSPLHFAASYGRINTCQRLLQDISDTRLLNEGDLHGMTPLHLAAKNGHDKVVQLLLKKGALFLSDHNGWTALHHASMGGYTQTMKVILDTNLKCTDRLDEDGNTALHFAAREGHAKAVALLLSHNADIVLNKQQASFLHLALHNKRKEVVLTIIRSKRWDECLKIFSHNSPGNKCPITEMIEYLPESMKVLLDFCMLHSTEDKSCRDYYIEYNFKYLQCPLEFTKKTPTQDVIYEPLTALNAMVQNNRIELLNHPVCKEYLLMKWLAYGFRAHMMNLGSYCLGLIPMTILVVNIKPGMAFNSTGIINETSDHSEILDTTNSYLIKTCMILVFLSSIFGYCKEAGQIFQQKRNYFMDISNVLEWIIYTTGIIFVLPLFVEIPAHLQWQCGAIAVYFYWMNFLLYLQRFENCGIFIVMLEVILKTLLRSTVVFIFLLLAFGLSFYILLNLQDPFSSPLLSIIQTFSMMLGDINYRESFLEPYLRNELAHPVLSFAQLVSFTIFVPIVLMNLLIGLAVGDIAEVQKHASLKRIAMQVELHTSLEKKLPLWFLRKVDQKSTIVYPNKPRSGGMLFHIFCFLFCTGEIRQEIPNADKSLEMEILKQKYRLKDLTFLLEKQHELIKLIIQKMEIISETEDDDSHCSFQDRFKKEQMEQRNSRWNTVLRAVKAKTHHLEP
T4 sequence (O75762 whole entry C633S/C856S): as the sequence (O75762 whole entry C633S) above, with C856S counted along it
T1 sequence (O75762 whole entry): as the sequence (O75762 whole entry C633S) above, with S633C counted along it
T2 sequence (O75762 whole entry C621S): as the sequence (O75762 whole entry C633S) above, with C621S, S633C counted along it

Cc1cc(/C=C2/SC(=S)NC2=O)c(C)n1-c1cccnc1 [optovin]
differences in appearance, touch response, heart rate, fin movements, morphology or percentage survival vs untreated ([1]; 10 μM for 96 hours, larvae and adult zebrafish): No differences were identified
survival rates ([1]; 10 μM, larval or adult zebrafish): does not affect survival rates
signs of toxicity ([1]; after 48 hours of treatment): No signs of toxicity were observed
current density amplitudes in response to positive voltage steps (human TrpA1 (hTrpA1)): significantly increased
response to light and optovin (intracellular calcium) (hTRPA1 C621S): significantly decreased response
response to light and optovin (intracellular calcium) (hTRPA1 C633S): significantly decreased response
response to light and optovin (intracellular calcium) [2]: significantly decreased response
hydroxyl radical and superoxide generation ([3]; 415 nm light): neither hydroxyl radicals nor superoxide
singlet oxygen generation ([3]; 415 nm light): generates singlet oxygen
singlet oxygen quantum yield ([3]; estimated by comparison with PEI-ce6): about 0.04

— patent US9486447B2, “Compositions and methods for controlling neuronal excitation” (The General Hospital Corporation, priority 2011, dated 2016)
